According to patent US20040110253A1, “Method for identifying MHC-presented peptide epitopes for T cells” (priority 2002, published 2004):
Ends that are not written are not given here.

Tests used:
T cell 3DT-52.5 = assay: IL-2 production by T cell 3DT-52.5 in response to LKD8 cells plus synthetic peptide; type: cell-based, mouse; conditions: synthetic peptide 100 ug/ml, D^d expressing Tap deficient cell line, twenty four hours
From the text: FIG. 14B is a graph showing IL-2 produced by T cell […] in response to (1) P815 plus a bound unknown self-peptide and 2) LKD8, alone, or in the presence of the library derived peptide, TGPTRWCRL (SEQ ID NO:50), or a peptide derived from the spin protein, AGATRWCRL (SEQ ID NO:51).
DNA from a number of these clones was sequenced through the region encoding the peptide to determine the peptide sequence. Only one sequence was found, a 9mer, TGPTRWCRL (represented by SEQ ID NO:50; the underlined amino acids are in the positions varied in the library). […] A search of the mouse genome for proteins that contained peptides similar to the library peptide yielded a very similar sequence (AGATRWCRL; SEQ ID NO:51) intheprotein, spin(GenBank Accession No. BC011467). The library peptide and the spin peptide were synthesized and tested with a D^d expressing, Tap deficient, cell line for recognition by the original T cell (FIG. 14B). […] In the case of LKD8 the cell line was tested alone or in the presence of 100 ug/ml of the library derived peptide, TGPTRWCRL (SEQ ID NO:50), or a peptide derived from the spin protein, AGATRWCRL (SEQ ID NO:51). After twenty four hours the culture supernatants were assayed for IL-2. Without an added peptide, the D^d on this cell line was not recognized because the Tap deficiency prevents loading of endogenous peptides.

YAe-62 TCR = assay: Binding of fluorescent soluble YAe-62 αβTCR to SF9 cells displaying IA^b-peptide (flow cytometry); parameters: species or system mouse; conditions: for YAe-62 TCR Binding (% of p3K): IA^b-peptide displayed on baculovirus-infected SF9 cells, fluorescent soluble αβTCR; for binding of YAe-62 αβTCR to IA^b-peptide complex (in words): insect cells displaying IA^b-peptide
Description: (§1) Next fluorescent, soluble αβTCR reagents were prepared for use in flow cytometry to detect insect cells displaying the appropriate MHCII/peptide combination. Fluorescent multivalent versions of the soluble αβTCR's of B3K-06 and YAe-62 bound to insect cells displaying the IA^b-p3K, but not a control MHCII-peptide combination (data not shown).
(§2) Insect cells displaying IA^b-p3K bound the αβTCR reagents very heterogeneously, probably due to heterogeneous expression of IA^b-p3K due to variations in the multiplicity of infection and the lack of synchrony in viral infection and expression. […] In this case, there was a direct correlation between the amount of surface IA^b-p3K expressed by an individual insect cell and the amount of αβTCR bound with cells bearing a particular level of IA^b-p3K binding the αβTCRs uniformly (data not shown). Therefore, comparing the two types of staining gave a useful tool to evaluate the relation between peptide sequence and the strength of αβTCR binding (see below).
(§3) A large number of SF9 insect cells were infected at an MOI of about one with baculovirus carrying the IA^b peptide library. After 3-4 days the cells were analyzed with fluorescent B3K-06 or YAe-62 soluble αβTCR, as described above. Fluorescent cells were sorted and cultured with fresh uninfected SF9 cells to create new infected cells for analysis and an enriched viral stock. This process was repeated 3 to 4 times. In each case, when no clear fluorescent population was apparent, the brightest 1% of the infected cells was sorted. In later rounds, the majority of the cells in a clearly distinguishable fluorescent population were sorted. Infected cells binding the B3K-06 αβTCR were apparent only after two rounds of enrichment but eventually yielded a population with uniform binding (data not shown). Infected cells that bound the YAe-62 αβTCR were detectable even with the initial library of viruses and enriched rapidly to yield a population with more heterogeneous levels of binding to the receptor (data not shown).
(§4) At the time of the final enrichment, single infected cells binding each of αβTCRs were sorted into individual wells of 96 well culture plates containing fresh SF9 cells in order to prepare clonal viral stocks. These stocks were used to infect fresh SF9 cells which were reanalyzed for binding to the appropriate αβTCR as described above. […] The majority of PCR fragments yielded a single unambiguous peptide sequence. These viruses were used to infect SF9 cells that expressed mouse ICAM and B7.1. The infected cells were used as APCs for either the B3K-06 or YAe-62 hybridoma with IL-2 production being a measure of IA^b-peptide recognition. Viruses expressing IA^b-peptide combinations that neither bound to the αβTCR nor stimulated the T cell hybridomas were used as negative controls and virus producing IA^b-p3K was used as the positive control. Results with a few representative virus clones are shown in FIG. 10A and 10B, and a summary of all of the results are shown in Table 1.

YAe-62 hybridoma = assay: IL-2 production by YAe-62 T cell hybridoma in response to IA^b-peptide presenting APCs; type: cell-based, mouse; conditions: for IL-2 Production (units/ml): YAe-62 hybridoma, infected SF9 cells expressing mouse ICAM and B7.1 as APCs; for difference in the amount of IL-2 production stimulated by the two peptides: SEQ ID NO:39 versus SEQ ID NO:40
From the text: The mouse T cell hybridoma, referred to as YAe-62, was chosen as a representative of broadly reactive T cells present in mice carrying transgenes and gene knockouts that lead to expression of MHC Class II that are almost completely occupied by a single peptide (Ignatowicz et al., 1996, Cell 84:521-529). The T cell was produced by immunization with p3K bound to IA^b in mice that express IA^b covalently linked to Eα, a dominant IA^b binding peptide derived from the MHC Class II IEα chain. YAe-62 responds to IA^b-p3K, but not to APCs lacking MHC Class II or to the IA^b-pEα APCs from the mouse from which it was derived. YAe-62 is also reactive against many cell types bearing IA^b in the absence of p3K. It also responds to APCs from a variety of mice carrying other alleles of IA. The inventors have postulated that this T cell responds mainly to the evolutionarily conserved regions of the IA molecule with less dependence on the peptide than seen with conventional T cells (Marrack et al., 2001, J. Immunol. 167:617-621). […] From the X-ray crystal structure of IA^b (Liu et al., 2002, supra) enough was known about how peptides bind to this MHC molecule to design a strategy in which the major MHC anchor amino acids of the peptide could be held constant and only five surface exposed amino acids need be varied in the library (FIG. 8).
as §4

B3K-06 TCR = assay: Binding of fluorescent soluble B3K-06 αβTCR to SF9 cells displaying IA^b-peptide (flow cytometry); parameters: species or system mouse; conditions: for B3K-06 TCR Binding (% of p3K): IA^b-peptide displayed on baculovirus-infected SF9 cells, fluorescent soluble αβTCR
Description: as §1, §2, §3, §4

B3K-06 hybridoma = assay: IL-2 production by B3K-06 T cell hybridoma in response to IA^b-peptide presenting APCs; type: cell-based, mouse; conditions: for IL-2 Production (units/ml): B3K-06 hybridoma, infected SF9 cells expressing mouse ICAM and B7.1 as APCs
From the text: The hybridoma, B3K-06 was produced from wild-type C57BL/6 mice immunized conventionally with the peptide (Rees et al., 1999, supra). […] Also, as is commonly seen with conventional T cells, the interaction of the αβ TcR of B3K-06 with IA^b-p3K is very sensitive to changes in any of the peptide amino acids exposed on the surface of the IA^b-p3K complex. Mutation of positions Q2, K3, K5, N7 or K8 to alanine virtually eliminates recognition of p3K by B3K-06 (Liu et al., 2002, supra and additional data not shown).
as §4

Substance | YAe-62 TCR Binding (% of p3K) (YAe-62 TCR) | IL-2 Production (units/ml) (YAe-62 hybridoma) | other results
AGATRWCRL (listed as Mus musculus) [peptide derived from the spin protein] |  |  | restoration of the ability of LKD8 cells to stimulate the T cells (IL-2) (T cell 3DT-52.5): restored the ability of the cells to stimulate the T cells
F E A A L A R A V P A V (FEAALARAVPAV; synthetic peptide motif) [SEQ ID NO:33] | 23.4 % of p3K | <3 | 
F E A E K A K A L T A V (FEAEKAKALTAV; synthetic peptide motif) [SEQ ID NO:28] | 49.6 % of p3K | 9 | 
F E A E R A R A A S A V (FEAERARAASAV; synthetic peptide motif) [SEQ ID NO:36] | 2.3 % of p3K | <3 | 
F E A F M A R A K A A V (FEAFMARAKAAV; synthetic peptide motif) [SEQ ID NO:21] | 107.5 % of p3K | 1256 | 
F E A F P A K A L R A V (FEAFPAKALRAV; synthetic peptide motif) [SEQ ID NO:30] | 38.5 % of p3K | 47 | 
F E A H T A L A P R A V (FEAHTALAPRAV) [SEQ ID NO:23] | 80.4 % of p3K | 6 | 
F E A L P A R A A A A V (FEALPARAAAAV) [SEQ ID NO:22] | 70.4 % of p3K | 681 | binding of YAe-62 αβTCR to IA^b-peptide complex (in words) (YAe-62 TCR): nearly equally well; difference in the amount of IL-2 production stimulated by the two peptides (YAe-62 hybridoma): 100 fold
F E A L S A K A N T A V (FEALSAKANTAV; synthetic peptide motif) [SEQ ID NO:31] | 33.3 % of p3K | <3 | 
F E A L Y A K A L T A V (FEALYAKALTAV; synthetic peptide motif) [SEQ ID NO:19] | 98.7 % of p3K | 1717 | 
F E A P Y A Q A P H A V (FEAPYAQAPHAV; synthetic peptide motif) [SEQ ID NO:38] | 1.3 % of p3K | <3 | 
F E A Q G A L A N I A V (FEAQGALANIAV; synthetic peptide motif) [pEα, negative control, reference compound] | 0.3 % of p3K | <3 | B3K-06 TCR Binding (% of p3K) (B3K-06 TCR): 0.4 % of p3K; IL-2 Production (units/ml) (B3K-06 hybridoma): <3 units/ml; response of YAe-62 to IA^b-peptide APCs (YAe-62 hybridoma; APCs bearing IA^b-peptide): not
F E A Q R A R A A R A V (FEAQRARAARAV; also: tethered to IA^b) [SEQ ID NO:16] |  |  | B3K-06 TCR Binding (% of p3K) (B3K-06 TCR): 66.8 % of p3K; binding of B3K-06 αβTCR to IA^b-peptide complex (in words) (B3K-06 TCR; insect cells displaying IA^b-peptide): only slightly less well than did the IA^b-p3K complex; IL-2 Production (units/ml) (B3K-06 hybridoma): 25 units/ml; stimulation of B3K-06 to produce IL-2 (in words) (B3K-06 hybridoma; bound to IA^b on B7/ICAM expressing SF9 APCs): able to stimulate B3K-06 to produce IL-2, but not nearly as well as did p3K
F E A Q V A H A L P A V (FEAQVAHALPAV; synthetic peptide motif) [SEQ ID NO:29] | 48.6 % of p3K | 32 | 
F E A R C A K A S T A V (FEARCAKASTAV; synthetic peptide motif) [SEQ ID NO:20] | 102.5 % of p3K | 467 | 
F E A R E A K A L A A V (FEAREAKALAAV; synthetic peptide motif) [SEQ ID NO:32] | 27.0 % of p3K | <3 | 
F E A R L A S A G K A V (FEARLASAGKAV; synthetic peptide motif) [SEQ ID NO:35] | 2.6 % of p3K | <3 | 
F E A R T A H A R N A V (FEARTAHARNAV; synthetic peptide motif) [SEQ ID NO:37] | 1.4 % of p3K | <3 | 
F E A S K A S A A V A V (FEASKASAAVAV; synthetic peptide motif) [SEQ ID NO:34] | 13.0 % of p3K | <3 | 
F E A S L A R A R S A V (FEASLARARSAV) [SEQ ID NO:24] | 76.2 % of p3K | 5 | 
F E A T T A R A L T A V (FEATTARALTAV; synthetic peptide motif) [SEQ ID NO:27] | 52.0 % of p3K | 6 | 
F E A Y T A R A R T A V [SEQ ID NO:25] (FEAYTARARTAV) | 58.3 % of p3K | 5 | 
F E A Y T A R A R T A V [SEQ ID NO:26] (FEAYTARARTAV; synthetic peptide motif) | 54.9 % of p3K | 7 | 
FEAQTAKARGAVD (synthetic peptide motif) |  |  | binding of YAe-62 αβTCR to IA^b-peptide complex (in words) (YAe-62 TCR): nearly equally well; difference in the amount of IL-2 production stimulated by the two peptides (YAe-62 hybridoma): 100 fold
